From patent publication US6086918A, “Oral peptide pharmaceutical products” (Unigene Laboratories, Inc., priority 1998, dated 2000)

What was measured:
[1] = Applicant's internal comparative tests of oral formulation, sCT versus PTH; assay type: in vivo; conditions: oral formulation of the invention
[2] = Blood levels of salmon calcitonin after direct injection of active components into duodenum, ilium or colon; assay type: in vivo; conditions: active components injected directly into the duodenum
Text: The acid is believed to lower the local intestinal pH (where the active agent has been released) to levels below the optimal range for many intestinal proteases. This decrease in pH reduces the proteolytic activity of the intestinal proteases, thus affording protection to the peptide from potential degradation. The activity of these proteases is diminished by the temporarily acidic environment provided by the invention. It is preferred that sufficient acid be provided that local intestinal pH is lowered temporarily to 5.5 or below, preferably 4.7 or below and more preferably 3.5 or below. The sodium bicarbonate test described below (in the section captioned "the pH-Lowering Agent") is indicative of the required acid amount. […] The absorption enhancers of the invention synergistically promote peptide absorption into the blood while conditions of reduced proteolytic activity prevail.

[3] = Pharmacokinetics of oral calcitonin (10.5 mg) in humans; assay type: in vivo, human; conditions: 10 milligrams of salmon calcitonin alone administered to humans
Method: The capsules were coated for 20 min with hydroxypropylmethylcellulose phthalate 50 in a pan coater and stored at 4° C. Fasted subjects were given 1 capsule followed by a glass of orange juice in the morning of the study. Samples of blood were taken 15 minutes before taking the capsules and at the indicated times after taking the calcitonin capsule. The concentration of calcitonin in blood was determined by competitive radioimmunoassay.

[4] = cited from earlier work

CC(C)C[C@H](NC(=O)[C@H](CCCCN)NC(=O)CNC(=O)[C@H](CC(C)C)NC(=O)[C@@H](NC(=O)[C@@H]1CSSC[C@H](N)C(=O)N[C@@H](CO)C(=O)N[C@@H](CC(N)=O)C(=O)N[C@@H](CC(C)C)C(=O)N[C@@H](CO)C(=O)N[C@@H]([C@@H](C)O)C(=O)N1)C(C)C)C(=O)N[C@@H](CO)C(=O)N[C@@H](CCC(N)=O)C(=O)N[C@@H](CCC(=O)O)C(=O)N[C@@H](CC(C)C)C(=O)N[C@@H](Cc1c[nH]cn1)C(=O)N[C@@H](CCCCN)C(=O)N[C@@H](CC(C)C)C(=O)N[C@@H](CCC(N)=O)C(=O)N[C@H](C(=O)N[C@@H](Cc1ccc(O)cc1)C(=O)N1CCC[C@H]1C(=O)N[C@@H](CCCNC(=N)N)C(=O)N[C@H](C(=O)N[C@@H](CC(N)=O)C(=O)N[C@H](C(=O)NCC(=O)N[C@@H](CO)C(=O)NCC(=O)N[C@H](C(=O)N1CCC[C@H]1C(N)=O)[C@@H](C)O)[C@@H](C)O)[C@@H](C)O)[C@@H](C)O [Salmon calcitonin]
bioavailability compared with parathyroid hormone [1]: significantly exceeds that of parathyroid hormone
Tmax for blood levels of salmon calcitonin [2]: 5 to 15 min
serum levels of salmon calcitonin [3]: no detectable serum levels
peak levels at which some patients report gastrointestinal distress ([4]; in vivo): ≥ 200 picograms per milliliter
detectable blood levels after injection ([4]; injection at conventional dosages): no detectable blood levels more than two hours after injection
peak levels at which effective against osteoporosis ([4]; nasal, 200 International units): ≥ 10 picograms per milliliter
half-life ([4]; subcutaneous administration in man): 20 to 40 min
peak serum concentration ([4]; subcutaneous, 100 International units): about 250 picograms per milliliter
